Measured values: patent publication EP4759807A1, “PROTEOLYSIS TARGETING CHIMERA COMPOUND FOR DEGRADING IRAK4 AND USE THEREOF” (Shenzhen Zhongge Biological Technology Co., Ltd., priority 2023, dated 2025)
Where two headings read alike, the source gives them in different places.

Target: T1, IRAK4 (Homo sapiens, UniProt Q9NWZ3)
T1 sequence (Q9NWZ3 1-460): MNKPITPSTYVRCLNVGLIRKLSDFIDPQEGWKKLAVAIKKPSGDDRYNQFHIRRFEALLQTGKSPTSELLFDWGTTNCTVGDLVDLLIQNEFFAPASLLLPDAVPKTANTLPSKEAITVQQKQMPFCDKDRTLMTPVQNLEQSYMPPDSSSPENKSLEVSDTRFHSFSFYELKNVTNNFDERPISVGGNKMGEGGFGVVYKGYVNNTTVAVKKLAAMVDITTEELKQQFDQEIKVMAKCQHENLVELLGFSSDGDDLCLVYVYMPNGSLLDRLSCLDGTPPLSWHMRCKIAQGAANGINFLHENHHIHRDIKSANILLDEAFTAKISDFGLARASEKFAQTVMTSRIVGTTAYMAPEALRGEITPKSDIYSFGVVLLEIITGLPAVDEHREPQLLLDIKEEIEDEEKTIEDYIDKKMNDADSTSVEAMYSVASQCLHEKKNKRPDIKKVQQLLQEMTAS
Assay: Hibit fluorescence detection of proteolysis (IRAK4-HiBiT in HEK293T cells)
Assay type: cell-based
Design: host or cells: HEK293T (ATCC)
Conditions: for Dmax: HEK-293T; for DC50: IRAK4-HiBiT, HEK293T cells, 24 h
Description: Utilizing HiBiT tag technology, the HiBiT tag-containing sequence (Seq. ID. No. 1, Beijing Tsingke Biotech Co., Ltd.) was connected to the IRAK4 plasmid (Seq. ID. No. 2, Beijing Tsingke Biotech Co., Ltd.), and the plasmid was transfected into HEK293T cells (ATCC). […] The 6-well plate that was incubated overnight was taken out. After the plate was left at room temperature for 15 min, the obtained mixture was added dropwise to the 6-well plate. […] Culture was performed at 37°C and 5% CO2 for 24 h. The 384-well plate was taken out and equilibrated to room temperature. 40 µL of Nano-Glo® HiBiT Lytic Detection System (Promega N3030) was added to each well and incubated at room temperature for 15 min. […] Prism 9.3 software was used to perform fitting analysis for data, and non-linear fitting (non-liner inhibitor (Bell-shaped)) and four parameters (4 parameter) were used, and the parameters was as follows: Span1 = Plateau1−Dip [formula] Span2 = Plateau2−Dip [formula] Section1 = Span1/(1+10^(∧)((LogEC50_1−X)*nH1)) [formula] Section2 = Span2/(1+10^(∧)((X−LogEC50_2)*nH2)) [formula]
The equation was as follows: Y=Dip+Section1+Section2. • Seq. ID. No. 1 ([…]), other DNA, synthetic construct, sequence length 33; • Seq. ID. No. 2 [formula]

SMILES	Dmax [%]	DC50 (read-out: DC50) [nM]	DC50 [nM]
Cn1c(=O)n(C2CCC(=O)NC2=O)c2cccc(N3CCC4(CCN(C[C@H]5CC[C@H](n6cc(-n7cc(-c8cnn9cc(C#N)cnc89)nn7)c(C(F)F)n6)CC5)C4)CC3)c21 (some centres unmarked) [Compound 189]	60 to 70	0.5 to 1	–
Cn1c(=O)n(C2CCC(=O)NC2=O)c2cccc(N3CCC(N4CCN(C[C@H]5CC[C@H](n6cc(-n7cc(-c8cnn9cc(C#N)cnc89)nn7)c(C(F)F)n6)CC5)CC4)CC3)c21 (some centres unmarked) [Compound 197]	60 to 70	1 to 5	–
Cn1c(=O)n(C2CCC(=O)NC2=O)c2cccc(N3CCC4(CCN(C[C@H]5CC[C@H](n6cc(-n7cc(-c8cnn9cc(C#N)cnc89)nn7)c(C(F)F)n6)CC5)CC4)CC3)c21 (some centres unmarked) [Compound 199]	60 to 70	1 to 5	–
Cn1c(=O)n(C2CCC(=O)NC2=O)c2cccc(N3CCC4(CCN(C[C@H]5CC[C@H](n6cc(-n7cc(-c8cnn9cc(C#N)cnc89)nn7)c(C(F)F)n6)CC5)CC4)C3)c21 (some centres unmarked) [Compound 202]	< 60	0.5 to 1	–
C[C@H]1CN(c2ccn3ncc(-c4cn(-c5cn([C@H]6CC[C@H](CN7CCC8(CC7)CCN(c7cccc9c7n(C)c(=O)n9C7CCC(=O)NC7=O)C8)CC6)nc5C(F)F)nn4)c3n2)CCO1 (some centres unmarked) [Compound 203]	> 80	< 0.5	–
Cn1c(=O)n(C2CCC(=O)NC2=O)c2cccc(N3CCN(C4CCN(C[C@H]5CC[C@H](n6cc(-n7cc(-c8cnn9cc(C#N)cnc89)nn7)c(C(F)F)n6)CC5)CC4)CC3)c21 (some centres unmarked) [Compound 206]	< 60	0.5 to 1	–
C[C@H]1CN(c2ccn3ncc(-c4cn(-c5cn([C@H]6CC[C@H](CN7CC8(CCN(c9cccc%10c9n(C)c(=O)n%10C9CCC(=O)NC9=O)CC8)C7)CC6)nc5C(F)F)nn4)c3n2)CCO1 (some centres unmarked) [Compound 212]	> 80	< 0.5	–
Cn1c(=O)n(C2CCC(=O)NC2=O)c2cccc(N3CCC4(CCN(C[C@H]5CC[C@H](n6cc(-n7cc(-c8cnn9ccc(N%10CC%11(COC%11)C%10)nc89)nn7)c(C(F)F)n6)CC5)CC4)CC3)c21 (some centres unmarked) [Compound 223]	> 80	< 0.5	–
Cn1c(=O)n(C2CCC(=O)NC2=O)c2cccc(N3CCC(N4CCN(C[C@H]5CC[C@H](n6cc(-n7cc(-c8cnn9ccc(N%10CC%11(COC%11)C%10)nc89)nn7)c(C(F)F)n6)CC5)CC4)CC3)c21 (some centres unmarked) [Compound 224]	> 80	< 0.5	–
Cn1c(=O)n(C2CCC(=O)NC2=O)c2cccc(N3CCN(C[C@H]4CC[C@H](n5cc(-n6cc(-c7cnn8ccc(NCC9CC9)nc78)nn6)c(C(F)F)n5)CC4)CC3)c21 (some centres unmarked) [Compound 225]	70 to 80	< 0.5	–
Cn1c(=O)n(C2CCC(=O)NC2=O)c2cccc(N[C@H]3CC[C@H](N(C)C[C@H]4CC[C@H](n5cc(-n6cc(-c7cnn8ccc(NCC9CC9)nc78)nn6)c(C(F)F)n5)CC4)CC3)c21 (some centres unmarked) [Compound 226]	> 80	< 0.5	–
CN1CCN(c2ccn3ncc(-c4cn(-c5cn([C@H]6CC[C@H](CN7CCN(c8cccc9c8n(C)c(=O)n9C8CCC(=O)NC8=O)CC7)CC6)nc5C(F)F)nn4)c3n2)CC1 (some centres unmarked) [Compound 227]	60 to 70	1 to 5	–
CN1CCN(c2ccn3ncc(-c4cn(-c5cn([C@H]6CC[C@H](CN7CCC8(CC7)CCN(c7cccc9c7n(C)c(=O)n9C7CCC(=O)NC7=O)C8)CC6)nc5C(F)F)nn4)c3n2)CC1 (some centres unmarked) [Compound 228]	70 to 80	< 0.5	–
CN1CCN(c2ccn3ncc(-c4cn(-c5cn([C@H]6CC[C@H](CN7CCC(N8CCN(c9cccc%10c9n(C)c(=O)n%10C9CCC(=O)NC9=O)CC8)CC7)CC6)nc5C(F)F)nn4)c3n2)CC1 (some centres unmarked) [Compound 229]	60 to 70	< 0.5	–
CN1CCN(c2ccn3ncc(-c4cn(-c5cn([C@H]6CC[C@H](CN(C)[C@H]7CC[C@H](Nc8cccc9c8n(C)c(=O)n9C8CCC(=O)NC8=O)CC7)CC6)nc5C(F)F)nn4)c3n2)CC1 (some centres unmarked) [Compound 230]	60 to 70	0.5 to 1	–
CN1CCN(c2ccn3ncc(-c4cn(-c5cn([C@H]6CC[C@H](CN7CCN(C8CCN(c9cccc%10c9n(C)c(=O)n%10C9CCC(=O)NC9=O)CC8)CC7)CC6)nc5C(F)F)nn4)c3n2)CC1 (some centres unmarked) [Compound 231]	70 to 80	0.5 to 1	–
CN1CCN(c2ccn3ncc(-c4cn(-c5cn([C@H]6CC[C@H](CN7CCC8(CCN(c9cccc%10c9n(C)c(=O)n%10C9CCC(=O)NC9=O)CC8)C7)CC6)nc5C(F)F)nn4)c3n2)CC1 (some centres unmarked) [Compound 232]	> 80	0.5 to 1	–
CN1CCN(c2ccn3ncc(-c4cn(-c5cn([C@H]6CC[C@H](CN7CCC8(CC7)CCN(c7cccc9c7n(C)c(=O)n9C7CCC(=O)NC7=O)CC8)CC6)nc5C(F)F)nn4)c3n2)CC1 (some centres unmarked) [Compound 233]	70 to 80	0.5 to 1	–
Cn1c(=O)n(C2CCC(=O)NC2=O)c2cccc(N3CCN(C[C@H]4CC[C@H](n5cc(-n6cc(-c7cnn8ccc(N9CCC(C)(O)CC9)nc78)nn6)c(C(F)F)n5)CC4)CC3)c21 (some centres unmarked) [Compound 235]	> 80	< 0.5	–
Cn1c(=O)n(C2CCC(=O)NC2=O)c2cccc(N3CCN(C4CCN(C[C@H]5CC[C@H](n6cc(-n7cc(-c8cnn9ccc(N%10CCC(C)(O)CC%10)nc89)nn7)c(C(F)F)n6)CC5)CC4)CC3)c21 (some centres unmarked) [Compound 236]	> 80	< 0.5	–
Cn1c(=O)n(C2CCC(=O)NC2=O)c2cccc(N[C@H]3CC[C@H](N(C)C[C@H]4CC[C@H](n5cc(-n6cc(-c7cnn8ccc(N9CCC(C)(O)CC9)nc78)nn6)c(C(F)F)n5)CC4)CC3)c21 (some centres unmarked) [Compound 237]	70 to 80	< 0.5	–
Cn1c(=O)n(C2CCC(=O)NC2=O)c2cccc(N3CCN(C[C@H]4CC[C@H](n5cc(-n6cc(-c7cnn8ccc(NCCC(C)(C)O)nc78)nn6)c(C(F)F)n5)CC4)CC3)c21 (some centres unmarked) [Compound 239]	> 80	< 0.5	–
Cn1c(=O)n(C2CCC(=O)NC2=O)c2cccc(N3CCC4(CCN(C[C@H]5CC[C@H](n6cc(-n7cc(-c8cnn9ccc(NCCC(C)(C)O)nc89)nn7)c(C(F)F)n6)CC5)CC4)C3)c21 (some centres unmarked) [Compound 240]	> 80	< 0.5	–
C[C@H](C#Cc1cccc2c1n(C)c(=O)n2C1CCC(=O)NC1=O)OC1CCN(C[C@H]2CC[C@H](n3cc(-n4cc(-c5cnn6ccc(N7CCOCC7)nc56)nn4)c(C(F)F)n3)CC2)CC1 (stereo partly drawn) [Example 1, 3-(4-((R)-3-((1-(((1r,4R)-4-(3-(difluoromethyl)-4-(4-(5-morpholinopyrazolo[1,5-a]pyrimidin-3-yl)-1H-1,2,3-triazol-1-yl)-1H-pyrazol-1-yl)cyclohexyl)methyl)piperidin-4-yl)oxy)but-1-yn-1-yl)-3-methyl-2-oxo-2,3-dihydro-1H-benzo[d]imidazol-1-yl)piperidine-2,6-dione]	< 60	–	< 0.5
Cn1c(=O)n(C2CCC(=O)NC2=O)c2cccc(CCCN3CCOC(CNCC4CCC(n5cc(-n6cc(-c7cnn8ccc(N9CCOCC9)nc78)nn6)c(C(F)F)n5)CC4)C3)c21 [Example 2, 3-(4-(3-((S)-2-((((4-(-3-(difluoromethyl)-4-(4-(5-morpholinopyrazolo [1,5-a]pyrimidin-3-yl)-1H-1,2,3-triazol-1-yl)-1H-pyrazol-1-ylcyclohexyl)methyl)amino)methyl)morpholinyl)propyl)-3-methyl-2-oxo-2,3-dihydro-1H-benzo[d]imidazol-1-yl)piperidine-2,6-dione]	< 60	–	< 0.5
CN(Cc1cccc2c1n(C)c(=O)n2C1CCC(=O)NC1=O)CC1CCN(C[C@H]2CC[C@H](n3cc(-n4cc(-c5cnn6ccc(N7CCOCC7)nc56)nn4)c(C(F)F)n3)CC2)CC1 (some centres unmarked) [Example 3, 3-(4-((((1-(((1r,4r)-4-(3-(difluoromethyl)-4-(4-(5-morpholinopyrazolo[1,5-a]pyrimidin-3-yl)-1H-1,2,3-triazol-1-yl)-1H-pyrazol-1-yl)cyclohexyl)methyl)piperidin-4-yl)methyl)(methyl)amino)methyl)-3-methyl-2-oxo-2,3-dihydro-1H-benzo[d]imidazol-1-yl)piperidine-2,6-dione]	60 to 70	–	< 0.5
Cn1c(=O)n(C2CCC(=O)NC2=O)c2cccc(CN3CCC4(CC3)CC(NC[C@H]3CC[C@H](n5cc(-n6cc(-c7cnn8ccc(N9CCOCC9)nc78)nn6)c(C(F)F)n5)CC3)C4)c21 (some centres unmarked) [Example 4]	> 80	–	< 0.5
Cn1c(=O)n(C2CCC(=O)NC2=O)c2cccc(CN3CCC4(CC3)CN(C[C@H]3CC[C@H](n5cc(-n6cc(-c7cnn8ccc(N9CCOCC9)nc78)nn6)c(C(F)F)n5)CC3)CCO4)c21 (some centres unmarked) [Example 5]	< 60	–	< 0.5
